ChEMBL document CHEMBL1149524 (Bioorg Med Chem Lett, 2006)
Values after ≈ are worked out from the molar mass of the structure shown.

What was measured:
Cathepsin S = Cathepsin S (Homo sapiens, UniProt P25774); test: Inhibition of cathepsin S; type: single protein
Cathepsin K = target: T1, Cathepsin K (Homo sapiens, UniProt P43235); test: Inhibition of cathepsin K; type: single protein
T1 sequence (P43235 whole entry): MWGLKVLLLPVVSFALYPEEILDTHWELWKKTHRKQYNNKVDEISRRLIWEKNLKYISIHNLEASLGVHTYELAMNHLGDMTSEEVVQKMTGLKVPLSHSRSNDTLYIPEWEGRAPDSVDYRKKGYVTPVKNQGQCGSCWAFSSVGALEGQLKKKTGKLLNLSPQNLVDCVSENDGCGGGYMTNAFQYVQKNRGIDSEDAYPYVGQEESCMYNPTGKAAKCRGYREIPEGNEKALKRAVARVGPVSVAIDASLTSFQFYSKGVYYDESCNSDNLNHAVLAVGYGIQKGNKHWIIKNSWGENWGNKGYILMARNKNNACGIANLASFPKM

Procathepsin L = Procathepsin L (Homo sapiens, UniProt P07711)
Procathepsin L, sequence (P07711 whole entry): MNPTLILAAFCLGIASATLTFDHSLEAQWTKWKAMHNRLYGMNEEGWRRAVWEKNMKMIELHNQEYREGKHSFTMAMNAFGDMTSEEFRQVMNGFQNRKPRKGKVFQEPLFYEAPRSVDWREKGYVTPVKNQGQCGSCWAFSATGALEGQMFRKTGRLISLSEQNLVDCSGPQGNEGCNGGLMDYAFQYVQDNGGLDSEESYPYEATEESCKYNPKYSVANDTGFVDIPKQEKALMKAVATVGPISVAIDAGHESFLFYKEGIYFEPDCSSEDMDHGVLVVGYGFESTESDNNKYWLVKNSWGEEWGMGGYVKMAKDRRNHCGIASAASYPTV
Description: Inhibition of cathepsin L

[1] = Volume of distribution in Wistar rat at 3 mg/kg, iv; type: ADME, organism-based; parameters: dose 3 mg/kg, route intravenous; conditions: in vivo, read-out: Vdss
[2] = Cmax in Wistar rat at 10 mg/kg, po; type: ADME, organism-based; parameters: dose 10 mg/kg, route oral; conditions: in vivo
Liver microsomes = test: Stability in rat liver microsomes; type: ADME, Microsome
[3] = AUC in Wistar rat at 10 mg/kg, po; type: ADME, organism-based; parameters: dose 10 mg/kg, route oral; conditions: plasma
[4] = Half life in Wistar rat at 3 mg/kg, iv; type: ADME, organism-based; parameters: dose 3 mg/kg, route intravenous; conditions: in vivo
[5] = Clearance in Wistar rat at 3 mg/kg, iv; type: ADME, organism-based; parameters: dose 3 mg/kg, route intravenous; conditions: in vivo
[6] = Solubility at pH 6.8; type: physicochemical; conditions: buffer
[7] = Half life in Wistar rat at 10 mg/kg, po; type: ADME, organism-based; parameters: dose 10 mg/kg, route oral; conditions: in vivo
[8] = Bioavailability in Wistar rat at 10 mg/kg, po; type: ADME, organism-based; conditions: in vivo
Cathepsin Z = Cathepsin Z (Homo sapiens, UniProt Q9UBR2); test: Inhibition of cathepsin X
Cathepsin Z, sequence (Q9UBR2 whole entry): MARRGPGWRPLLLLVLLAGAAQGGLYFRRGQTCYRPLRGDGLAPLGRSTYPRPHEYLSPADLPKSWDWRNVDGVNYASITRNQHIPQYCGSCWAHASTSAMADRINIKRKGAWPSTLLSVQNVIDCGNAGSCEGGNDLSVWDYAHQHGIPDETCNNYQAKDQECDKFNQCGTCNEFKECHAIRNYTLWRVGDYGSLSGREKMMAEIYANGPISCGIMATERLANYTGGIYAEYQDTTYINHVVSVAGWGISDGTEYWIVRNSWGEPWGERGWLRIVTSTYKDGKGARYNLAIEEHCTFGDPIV

Pro-cathepsin H = target: T2, Pro-cathepsin H (Homo sapiens, UniProt P09668); test: Inhibition of cathepsin H
T2 sequence (P09668 whole entry): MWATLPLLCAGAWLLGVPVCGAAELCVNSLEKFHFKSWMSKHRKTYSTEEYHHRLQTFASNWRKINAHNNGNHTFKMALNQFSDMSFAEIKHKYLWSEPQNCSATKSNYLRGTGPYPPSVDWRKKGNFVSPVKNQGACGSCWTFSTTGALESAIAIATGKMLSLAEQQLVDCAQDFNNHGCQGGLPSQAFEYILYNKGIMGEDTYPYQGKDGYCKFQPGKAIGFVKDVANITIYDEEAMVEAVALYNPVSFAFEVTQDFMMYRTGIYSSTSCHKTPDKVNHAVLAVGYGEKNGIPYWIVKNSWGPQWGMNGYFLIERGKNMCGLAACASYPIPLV

Cathepsin F = target: T3, Cathepsin F (Homo sapiens, UniProt Q9UBX1); test: Inhibition of cathepsin F
T3 sequence (Q9UBX1 whole entry): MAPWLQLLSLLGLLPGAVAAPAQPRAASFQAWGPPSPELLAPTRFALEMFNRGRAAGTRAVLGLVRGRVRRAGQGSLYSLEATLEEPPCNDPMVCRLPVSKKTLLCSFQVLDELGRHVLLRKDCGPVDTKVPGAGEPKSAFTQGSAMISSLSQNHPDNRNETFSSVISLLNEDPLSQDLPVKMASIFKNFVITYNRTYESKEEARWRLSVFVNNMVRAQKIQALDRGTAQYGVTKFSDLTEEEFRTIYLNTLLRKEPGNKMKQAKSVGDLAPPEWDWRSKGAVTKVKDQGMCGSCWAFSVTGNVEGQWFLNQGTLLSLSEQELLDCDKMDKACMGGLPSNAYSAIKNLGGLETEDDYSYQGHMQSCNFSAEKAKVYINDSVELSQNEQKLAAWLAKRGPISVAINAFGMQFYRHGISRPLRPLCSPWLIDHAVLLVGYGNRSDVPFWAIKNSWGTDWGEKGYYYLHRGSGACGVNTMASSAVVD

Cathepsin B = Cathepsin B (Homo sapiens, UniProt P07858); test: Inhibition of cathepsin B
Cathepsin L2 = target: T4, Cathepsin L2 (Homo sapiens, UniProt O60911); test: Inhibition of cathepsin V
T4 sequence (O60911 whole entry): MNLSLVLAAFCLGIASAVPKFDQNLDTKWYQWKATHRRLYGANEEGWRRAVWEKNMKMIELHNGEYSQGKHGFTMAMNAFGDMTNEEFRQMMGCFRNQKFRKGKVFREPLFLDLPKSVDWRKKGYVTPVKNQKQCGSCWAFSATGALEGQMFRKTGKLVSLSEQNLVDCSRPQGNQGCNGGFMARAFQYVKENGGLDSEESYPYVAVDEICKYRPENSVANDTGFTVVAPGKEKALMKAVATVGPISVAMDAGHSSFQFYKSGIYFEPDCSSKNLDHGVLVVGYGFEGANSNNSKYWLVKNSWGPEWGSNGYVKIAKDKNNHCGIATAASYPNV

Cathepsin S, sequence (P25774 whole entry): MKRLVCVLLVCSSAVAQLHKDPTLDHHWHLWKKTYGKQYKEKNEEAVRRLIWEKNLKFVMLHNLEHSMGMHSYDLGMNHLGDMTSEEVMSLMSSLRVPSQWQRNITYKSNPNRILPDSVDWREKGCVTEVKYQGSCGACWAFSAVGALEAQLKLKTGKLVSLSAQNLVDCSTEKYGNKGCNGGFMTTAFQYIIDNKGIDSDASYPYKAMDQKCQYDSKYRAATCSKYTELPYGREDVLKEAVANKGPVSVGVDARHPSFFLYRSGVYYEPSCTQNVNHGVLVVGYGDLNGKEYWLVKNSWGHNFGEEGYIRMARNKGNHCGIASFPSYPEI

Row | Structure (SMILES) | Ki (Cathepsin S) [nM] | Ki (Cathepsin K) [µM] | Ki (Procathepsin L) [nM] | further results
1 | C[C@@H](CNc1ccc(OC(F)(F)F)cc1)NC(=O)[C@H](CC1CCCCC1)NC(=O)N1CCOCC1 | 11 | 1.66 | – | –
2 | C[C@@H](CNc1ccc(OC(F)(F)F)cc1)NC(=O)[C@H](CC1CCCC1)NC(=O)N1CCOCC1 | 49 | 1.54 | – | –
3 | C[C@@H](CNc1ccc(OC(F)(F)F)cc1)NC(=O)[C@H](CC1CCCCC1)NC(=O)O[C@H]1CCOC1 | 49 | > 30 | 594 | –
4 | C[C@@H](CNc1ccc(OC(F)(F)F)cc1)NC(=O)[C@H](CC1CCCCC1)NC(=O)[C@@H]1CCCO1 | 53 | > 30 | – | –
5 | C[C@@H](CNc1ccc(OC(F)(F)F)cc1)NC(=O)[C@H](CC1CCCCC1)NC(=O)C1CCOC1 (stereo partly drawn) | 21 | > 30 | 4790 | Vd [1]: 2.48 L/kg; Cmax [2]: 491 nM; Stability (Liver microsomes): 56%; AUC [3]: 817 ng·h/mL; half-life [4]: 108 min; clearance [5]: 39 mL/min/kg; solubility [6]: 30 µg/mL (≈ 61.8 µM); half-life [7]: 90 min; bioavailability [8]: 19%
6 | O=C(N[C@@H](CC1CCCCC1)C(=O)NCCNc1ccc(OC(F)(F)F)cc1)c1ccoc1 | 6 | 9.34 | – | –
7 | C[C@@H](CNc1ccc(OC(F)(F)F)cc1)NC(=O)[C@H](CC1CCCCC1)NC(=O)OC1CCOCC1 | 12 | 13.3 | – | –
8 | C[C@@H](CNc1ccc(OC(F)(F)F)cc1)NC(=O)[C@H](CC1CCCCC1)NC(=O)C1CCOCC1 | 12 | 14.3 | – | –
9 | C[C@@H](CNc1ccc(OC(F)(F)F)cc1)NC(=O)[C@H](CSCc1ccccc1)NC(=O)N1CCOCC1 | 12 | 2.48 | – | –
10 | O=C(N[C@@H](CC1CCCCC1)C(=O)NCCNc1ccc(OC(F)(F)F)cc1)c1ccc(-c2cccc(C(F)(F)F)c2)o1 | 11 | 8.58 | – | –
11 | CC[C@@H](CNc1ccc(OC(F)(F)F)cc1)NC(=O)[C@H](CC1CCCCC1)NC(=O)N1CCOCC1 | 11 | 0.13 | 6 | –
12 | O=C(NCCNc1ccc(OC(F)(F)F)cc1)[C@H](CC1CCCCC1)NC(=O)[C@H]1CCCO1 | 658 | > 30 | 3120 | –
13 | CC(C)(C)C[C@H](NC(=O)N1CCOCC1)C(=O)NCCNc1ccc(OC(F)(F)F)cc1 | 220 | 1.33 | > 30000 | –
14 | O=C(N[C@@H](CC1CCCCC1)C(=O)NCCNc1ccc(OC(F)(F)F)cc1)c1cc2ccccc2o1 | 17 | 0.15 | – | –
15 | C[C@@H](CN1CC(C)(C)c2cc(F)ccc21)NC(=O)[C@H](CC1CCCCC1)NC(=O)N1CCOCC1 | 11 | 16.9 | 810 | Stability (Liver microsomes): < 1%; solubility [6]: 10 µg/mL (≈ 20.5 µM)
16 | C[C@@H](CN1c2ccc(F)cc2CC1(C)C)NC(=O)[C@H](CC1CCCCC1)NC(=O)N1CCOCC1 | 111 | 13.1 | – | –
17 | O=C(N[C@@H](CC1CCCCC1)C(=O)NCCNc1ccc(OC(F)(F)F)cc1)c1ccco1 | 47 | 8.81 | 1150 | –
18 | O=C(N[C@@H](CC1CCCCC1)C(=O)NCCNc1ccc(OC(F)(F)F)cc1)C1CCOC1 (stereo partly drawn) | 213 | > 30 | 7940 | –
19 | C[C@@H](CNc1ccc(OC(F)(F)F)cc1)NC(=O)[C@H](CC1CCCCC1)NC(=O)[C@H]1CCCO1 | 18 | 4.61 | – | Vd [1]: 1.78 L/kg; Cmax [2]: 1240 nM; Stability (Liver microsomes): 66%; AUC [3]: 1750 ng·h/mL; half-life [4]: 66 min; clearance [5]: 35 mL/min/kg; solubility [6]: 25 µg/mL (≈ 51.5 µM); half-life [7]: 58 min; bioavailability [8]: 36%
20 | C[C@@H](CNc1ccc(OC(F)(F)F)cc1)NC(=O)[C@H](CS(=O)(=O)Cc1ccccc1)NC(=O)N1CCOCC1 | – | > 100 | > 30000 | Vd [1]: 0.87 L/kg; Cmax [2]: 639 nM; Stability (Liver microsomes): 100%; Ki (Cathepsin Z): > 30 µM; AUC [3]: 700 ng·h/mL; Ki (Pro-cathepsin H): > 30 µM; half-life [4]: 49 min; clearance [5]: 39 mL/min/kg; Ki (Cathepsin F): > 30 µM; solubility [6]: 43 µg/mL (≈ 75.1 µM); half-life [7]: 66 min; bioavailability [8]: 16%; Ki (Cathepsin B): > 30 µM; Ki (Cathepsin L2): > 30 µM
21 | O=C(NCCNc1ccc(OC(F)(F)F)cc1)[C@H](CC1CCCCC1)NC(=O)N1CCOCC1 | 99 | 18.8 | – | –
22 | COc1ccc(NCCNC(=O)[C@H](CC2CCCCC2)Nc2nc3ccccc3o2)cc1 | – | – | – | Stability (Liver microsomes): 4%; solubility [6]: 10 µg/mL (≈ 22.9 µM); bioavailability [8]: < 1%
23 | O=C(NCCNc1ccc(OC(F)(F)F)cc1)[C@H](Cc1ccccc1)NC(=O)N1CCOCC1 | 11400 | > 100 | > 100000 | –
24 | O=C(N[C@@H](CC1CCCCC1)C(=O)NCCNc1ccc(OC(F)(F)F)cc1)c1ccc(-c2cccc(F)c2)o1 | 34 | 11.7 | – | –
25 | C[C@@H](CNc1ccc(OC(F)(F)F)cc1)NC(=O)[C@H](CC1CCCCC1)NC(=O)O[C@@H]1CCOC1 | 42 | > 30 | 2570 | –
26 | COc1ccc(NCCNC(=O)[C@H](CC2CCCCC2)NC(=O)c2ccc(-c3cccc(C(F)(F)F)c3)o2)cc1 | – | – | – | Cmax [2]: 19 nM; Stability (Liver microsomes): 12%; AUC [3]: 50 ng·h/mL; solubility [6]: < 1 µg/mL; half-life [7]: 146 min
27 | C[C@@H](CNc1ccc(OC(F)(F)F)cc1)NC(=O)[C@H](CC(C)(C)C)NC(=O)N1CCOCC1 | 93 | 0.461 | 14600 | –
28 | C[C@@H](CN1CCc2cc(F)ccc21)NC(=O)[C@H](CC1CCCCC1)NC(=O)N1CCOCC1 | 87 | 5.13 | – | –
29 | CS(=O)(=O)CC[C@@H](CNc1ccc(OC(F)(F)F)cc1)NC(=O)[C@H](CC1CCCCC1)NC(=O)N1CCOCC1 | 5 | 0.139 | 4 | –
